Measurements as given in patent EP0659072B1, “PHAR[…] […] STEROIDS” (Pharmacia AB, priority 1993, dated 1995).

Key:
[1] = Solubility of steroid and stability of the oil-in-water emulsions of Example 2; format: physicochemical; settings: in Formulation 1 compared with Formulation 3
Protocol: For the biological experimentation oil-in-water emulsions were prepared from the following components:
pH was adjusted to 8.5 by NaOH and water for injection was added to 1 ml in all formulations.
Formulations 1 and 2 are emulsions according to the present invention, whereas Formulation 3 is a state of the art emulsion according to the European patent EP 233 849. The medium chain triglycerides in Formulation 2 are derived from coconut oil and will contain a fraction of triglycerides with fatty add residues having 6 to 12 carbon atoms. According to the present invention, the eltanolone was first mixed with castor oil or a mixture of castor oil and soybean oil and/or MCT. This leads to a substantial dissolution of the eltanolone. An emulsion was then prepared from the resulting oil-eltanolone mixture together with the additional indicated components. The resulting emulsions were stable and had average particle sizes of about 0.2 to 0.3 µ and could be sterilized by autoclaving without destabilisation. It is notable that in Formulations 1 and 2 according to the present invention half the amount of lipids is sufficient for obtaining a substantial dissolution of eltanolone when compared to Formulation 3. The solubility of eltanolone is for example about 5 times higher in Formulation 1 than in Formulation 3.

[2] = Quality of castor oil containing emulsions with different steroids (pH, volume distribution, span, storage stability); format: physicochemical; settings: for D(4:3) / pH / Span: emulsion of the steroid; for pH: heat sterilized; for Span: Malvern Mastersizer; for Storage 5 and 40°C: storage stability of emulsion
Protocol: In order to determinate the quality of the castor oil containing emulsions with different steroids, the following compositions were prepared:
The steroids were weighed in a 50 ml glass beaker. The castor oil (CO) or a mixture of castor oil and soybeans oil (CO+SBO) in a proportion of 70 : 30 was added to the beaker which was heated and the steroids were dissolved. The phospholipids were added to the oil phase and the agitation continued for another five minutes. This mixture was added to a heated aqueous phase containing water and glycerol and agitated for five minutes. The mixture was thereafter homogenized to an emulsion in a high pressure lab scale homogeniser at the technically highest possible pressure. The resultant emulsions were dispersed and sealed 20 ml glass vials which were heat sterilized. The emulsions were analysed with respect to the appearance, the shaking stability, pH and volume distribution. The span was analysed with a Malvern Mastersizer. The appearance of the droplets larger than 1µm and the average area on a relevant picture and the presence of precipitate were investigated with a microscope. The storage stability at 5 and 40°C was also studied.

[3] = vehicle CO+SBO (castor oil and soybean oil 70 : 30)

SMILES | solubility of eltanolone [1] | D(4:3) ([2]; vehicle CO (castor oil)) [µm] | pH ([2]; vehicle CO (castor oil)) | Span ([2]; vehicle CO (castor oil)) | D(4:3) ([2]; vehicle CO+SBO (70 : 30)) [µm] | Span ([2]; vehicle CO+SBO (70 : 30)) | pH [2, 3] | Storage 5 and 40°C ([2]; vehicle CO (castor oil)) | Storage 5 and 40°C ([2]; vehicle CO+SBO (70 : 30))
CC(=O)[C@H]1CC[C@H]2[C@@H]3CC[C@@H]4C[C@H](O)CC[C@]4(C)[C@H]3CC[C@]12C [eltanolone, 5β-pregnan-3α-ol-20-one] | about 5 times higher |  |  |  |  |  |  |  | 
C[C@]12CC[C@@H](O)C[C@@H]1CC[C@@H]1[C@@H]2CC[C@]2(C)C(=O)CC[C@@H]12 [Androsterone, 5α-androstan-3α-ol-17-one] |  | 0.83 | 8.9 | 1.79 | 0.51 | 1.50 | 9.2 | >1 month months | >1 month months
CC(=O)[C@H]1CC[C@H]2[C@@H]3CC[C@@H]4C[C@@H](O)CC[C@]4(C)[C@H]3CC[C@]12C [Epipreganolone, 5β-pregnan-3β-ol-20-one] |  | 0.75 | 8.8 | 1.81 | 0.75 | 1.71 | 9.0 | >4 months | >4 months
CC(=O)[C@H]1CC[C@H]2[C@@H]3CC[C@H]4C[C@H](O)CC[C@]4(C)[C@H]3CC[C@]12C [Allo pregnanolone, 5α-pregnan-3β-ol-20-one] |  | 0.69 | 8.8 | 1.70 | 0.53 | 1.58 | 9.0 | >3 months | >3 months
C[C@]12C=CC(=O)C=C1CC[C@@H]1[C@@H]2[C@@H](O)C[C@@]2(C)[C@H]1CC[C@]2(O)C(=O)CO [Prednisolone, 11β-11, 17, 21-trihydroxypregna-1,4-diene-3,20-dione, reference compound] |  | 0.81 | 8.9 | 1.28 | 0.70 | 1.26 | 8.9 | >2 months | >2 months
C[C@]12CC[C@@H](O)C[C@H]1CC[C@@H]1[C@@H]2CC[C@]2(C)[C@@H](C(=O)CO)CC[C@@H]12 [Tetrahydrodeoxycorticosterone, 5β-pregnan-3α,21-diol-20-one] |  | 0.86 | 9.0 | 1.80 | 0.58 | 1.52 | 9.1 | >1 month months | >1 month months
CC(=O)[C@H]1CC[C@H]2[C@@H]3CC=C4C[C@@H](OS(=O)(=O)O)CC[C@]4(C)[C@H]3CC[C@]12C [Pregnenolone sulphate, 5-pregnen-3β-ol-20-one-sulphate] |  | 0.97 | 8.8 | 1.76 | 0.50 | 1.56 | 8.8 | >1 month months | >1 month months
C[C@]12CCC(=O)C=C1CC[C@@H]1[C@@H]2[C@@H](O)C[C@@]2(C)[C@H]1CC[C@]2(O)C(=O)CO [Hydrocortisone, 11β,17α,21-trihydroxypregna-4-ene-3,20-dione, reference compound] |  | 0.76 | 8.7 | 1.43 | 0.56 | 1.51 | 8.8 |  | 
